The target in test [1] is GDP-bound NRAS wild-type protein (Homo sapiens, UniProt P01111). Description: Binding to NRAS by surface plasmon resonance (SPR), Single Cycle Kinetics. Conditions: KD ratio, GDP-bound NRAS wild-type vs GDP-bound KRAS wild-type, SPR.
In test [2] the target is GDP-bound HRAS wild-type protein (Homo sapiens, UniProt P01112). Description: Binding to HRAS by surface plasmon resonance (SPR), Single Cycle Kinetics. The following applies: KD ratio, GDP-bound HRAS wild-type vs GDP-bound KRAS wild-type, SPR. On the technique in general: In SPR one partner is held on a chip, and binding of the other changes the refractive index at the surface.

From patent US20250230193A1, “CYCLIC COMPOUND HAVING SELECTIVE KRAS INHIBITORY EFFECT ON HRAS AND NRAS” (CHUGAI SEIYAKU KABUSHIKI KAISHA, priority 2022, published 2025) come the findings set out here.

Sequence of GDP-bound HRAS wild-type protein (P01112 whole entry): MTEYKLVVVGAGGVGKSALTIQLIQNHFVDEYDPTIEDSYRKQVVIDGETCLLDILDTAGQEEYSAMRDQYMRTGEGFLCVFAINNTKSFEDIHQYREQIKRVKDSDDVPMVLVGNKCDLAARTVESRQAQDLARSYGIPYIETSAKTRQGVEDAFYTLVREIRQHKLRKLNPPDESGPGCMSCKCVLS
Sequence of GDP-bound NRAS wild-type protein (P01111 whole entry): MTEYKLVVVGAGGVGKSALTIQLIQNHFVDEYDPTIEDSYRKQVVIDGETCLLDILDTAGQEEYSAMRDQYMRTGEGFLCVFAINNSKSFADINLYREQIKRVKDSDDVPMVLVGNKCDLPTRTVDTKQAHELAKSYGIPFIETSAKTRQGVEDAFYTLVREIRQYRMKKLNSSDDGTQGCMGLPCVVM

With `CC[C@H](C)[C@@H]1NC(=O)[C@H](CC)N(C)C(=O)C[C@@H](C(=O)N(C)C)N(C)C(=O)[C@H](C2CCCC2)N(C)C(=O)C2(CC(C)(C)C2)NC(=O)[C@@H]2C[C@@H](C)CN2C(=O)[C@H](CCc2ccc(C(F)(F)F)c(Cl)c2)NC(=O)CN(C)C(=O)[C@H](Cc2ccc(C)cc2)N2CC/C=C\C[C@@H](C2=O)N(C)C(=O)CN(C)C1=O` [PP1846], the “NRAS/KRAS (ratio of KD value for NRAS to KD value for KRAS)” value in test [1] is “A (a compound having 10 or more and less than 20 is denoted as A)”. Besides, the “HRAS/KRAS (ratio of KD value for HRAS to KD value for KRAS)” value in test [2] is “B (a compound having 3 or more and less than 10 is denoted as B)”.
Turning to `CC[C@H](C)[C@@H]1NC(=O)[C@H](CC(C)C)N(C)C(=O)C[C@@H](C(=O)N(CC)CC)N(C)C(=O)[C@H](C2CCCC2)N(C)C(=O)C2(CCC2)NC(=O)[C@@H]2C[C@@H](C)CN2C(=O)[C@H](CCc2ccc(C(F)(F)F)c(OC)c2)NC(=O)CN(C)C(=O)[C@H](Cc2ccc(C)cc2)N2CC/C=C\C[C@@H](C2=O)N(C)C(=O)CN(C)C1=O` [PP1849], the “NRAS/KRAS (ratio of KD value for NRAS to KD value for KRAS)” value in test [1] is “A (a compound having 10 or more and less than 20 is denoted as A)”. In addition, the “HRAS/KRAS (ratio of KD value for HRAS to KD value for KRAS)” value in test [2] is “A (a compound having 10 or more and less than 20 is denoted as A)”.
For the compound `CCO[C@@H]1C[C@H]2C(=O)NC3(CCC3)C(=O)N(C)[C@@H](C3CCCC3)C(=O)N(C)[C@H](C(=O)N(CC)CC)CC(=O)N(C)[C@@H](CC(C)C)C(=O)N[C@@H]([C@@H](C)CC)C(=O)N(C)CC(=O)N(C)[C@H]3C/C=C\CCN(C3=O)[C@@H](Cc3ccc(C)cc3)C(=O)N(C)CC(=O)N[C@@H](CCc3ccc(C(F)(F)F)c(OC)c3)C(=O)N2C1` [PP1851], the “NRAS/KRAS (ratio of KD value for NRAS to KD value for KRAS)” value in test [1] is “A (a compound having 10 or more and less than 20 is denoted as A)”. In test [2], the “HRAS/KRAS (ratio of KD value for HRAS to KD value for KRAS)” value is “A (a compound having 10 or more and less than 20 is denoted as A)”.
On to `CC[C@H](C)[C@@H]1NC(=O)[C@H](CC(C)C)N(C)C(=O)C[C@@H](C(=O)N(C)C)N(C)C(=O)[C@H](C2CCCC2)N(C)C(=O)C2(CCC2)NC(=O)[C@@H]2C[C@H](C)CN2C(=O)[C@H](CCc2ccc(C(F)(F)F)c(Cl)c2)NC(=O)CN(C)C(=O)[C@H](Cc2ccc(C)cc2)N2CC/C=C\C[C@@H](C2=O)N(C)C(=O)CN(C)C1=O` [PP1852], for which, in test [1], the “NRAS/KRAS (ratio of KD value for NRAS to KD value for KRAS)” value was “A (a compound having 10 or more and less than 20 is denoted as A)”. Further, the “HRAS/KRAS (ratio of KD value for HRAS to KD value for KRAS)” value in test [2] was “B (a compound having 3 or more and less than 10 is denoted as B)”.
Take `CC[C@H](C)[C@@H]1NC(=O)[C@H](CC(C)C)N(C)C(=O)C[C@@H](C(=O)N(C)C)N(C)C(=O)[C@H](C2CCCC2)N(C)C(=O)C2(CCC2)NC(=O)[C@@H]2C[C@@H](C)CN2C(=O)[C@H](CCc2ccc(C(F)(F)F)c(Cl)c2)NC(=O)CN(C)C(=O)[C@H](Cc2ccc(C)cc2)N2CC/C=C\C[C@@H](C2=O)N(C)C(=O)CN(C)C1=O` [PP1854]: in test [1], the “NRAS/KRAS (ratio of KD value for NRAS to KD value for KRAS)” value is “A (a compound having 10 or more and less than 20 is denoted as A)”. Moreover, in test [2], the “HRAS/KRAS (ratio of KD value for HRAS to KD value for KRAS)” value is “A (a compound having 10 or more and less than 20 is denoted as A)”.
In the case of `CC[C@H](C)[C@@H]1NC(=O)[C@H](CC)N(C)C(=O)C[C@@H](C(=O)N(C)CC)N(C)C(=O)[C@H](C2CCCC2)N(C)C(=O)C2(CCC2)NC(=O)[C@@H]2C[C@@H](C)CN2C(=O)[C@H](CCc2ccc(C(F)(F)F)c(OC)c2)NC(=O)CN(C)C(=O)[C@H](Cc2ccc(C)cc2)N2CC/C=C\C[C@@H](C2=O)N(C)C(=O)CN(C)C1=O` [PP1855], in test [1], the “NRAS/KRAS (ratio of KD value for NRAS to KD value for KRAS)” value is reported as “AA (a compound having 20 or more is denoted as AA)”. In test [2], the “HRAS/KRAS (ratio of KD value for HRAS to KD value for KRAS)” value was “A (a compound having 10 or more and less than 20 is denoted as A)”.
Take `CC[C@H](C)[C@@H]1NC(=O)[C@H](CC)N(C)C(=O)C[C@@H](C(=O)N(C)C)N(C)C(=O)[C@H](C2CCCC2)N(C)C(=O)C2(CC(C)(C)C2)NC(=O)[C@@H]2C[C@H](C)CN2C(=O)[C@H](CCc2cc(F)c(C(F)(F)F)c(F)c2)NC(=O)CN(C)C(=O)[C@H](Cc2ccc(C)cc2)N2CC/C=C\C[C@@H](C2=O)N(C)C(=O)CN(C)C1=O` [PP1856]: the “NRAS/KRAS (ratio of KD value for NRAS to KD value for KRAS)” value in test [1] is “A (a compound having 10 or more and less than 20 is denoted as A)”. In addition, the “HRAS/KRAS (ratio of KD value for HRAS to KD value for KRAS)” value in test [2] was “A (a compound having 10 or more and less than 20 is denoted as A)”.
Regarding `CCC[C@H]1C(=O)N[C@@H]([C@@H](C)CC)C(=O)N(C)CC(=O)N(C)[C@H]2C/C=C\CCN(C2=O)[C@@H](Cc2ccc(C)cc2)C(=O)N(C)CC(=O)N[C@@H](CCc2ccc(C(F)(F)F)c(OC)c2)C(=O)N2C[C@@H](C)C[C@H]2C(=O)NC2(CCC2)C(=O)N(C)[C@@H](C2CCCC2)C(=O)N(C)[C@H](C(=O)N(C)C)CC(=O)N1C` [PP1857], the “NRAS/KRAS (ratio of KD value for NRAS to KD value for KRAS)” value in test [1] is “A (a compound having 10 or more and less than 20 is denoted as A)”. For the same compound, the “HRAS/KRAS (ratio of KD value for HRAS to KD value for KRAS)” value in test [2] was “B (a compound having 3 or more and less than 10 is denoted as B)”.
Take `CCC[C@H]1C(=O)N[C@@H]([C@@H](C)CC)C(=O)N(C)CC(=O)N(C)[C@H]2C/C=C\CCN(C2=O)[C@@H](Cc2ccc(C)cc2)C(=O)N(C)CC(=O)N[C@@H](CCc2ccc(C(F)(F)F)c(OC)c2)C(=O)N2C[C@H](C)C[C@H]2C(=O)NC2(CCC2)C(=O)N(C)[C@@H](C2CCCC2)C(=O)N(C)[C@H](C(=O)N(C)C)CC(=O)N1C` [PP1859]: in test [1], the “NRAS/KRAS (ratio of KD value for NRAS to KD value for KRAS)” value was “A (a compound having 10 or more and less than 20 is denoted as A)”. In addition, in test [2], the “HRAS/KRAS (ratio of KD value for HRAS to KD value for KRAS)” value is “A (a compound having 10 or more and less than 20 is denoted as A)”.
`CCC[C@H]1C(=O)N[C@@H]([C@@H](C)CC)C(=O)N(C)CC(=O)N(C)[C@H]2C/C=C\CCN(C2=O)[C@@H](Cc2ccc(C)cc2)C(=O)N(C)CC(=O)N[C@@H](CCc2cc(F)c(C(F)(F)F)c(F)c2)C(=O)N2C[C@@H](C)C[C@H]2C(=O)NC2(CCC2)C(=O)N(C)[C@@H](C2CCCC2)C(=O)N(C)[C@H](C(=O)N(C)CC)CC(=O)N1C` [PP1860]: in test [1], the “NRAS/KRAS (ratio of KD value for NRAS to KD value for KRAS)” value was “A (a compound having 10 or more and less than 20 is denoted as A)”. Besides, the “HRAS/KRAS (ratio of KD value for HRAS to KD value for KRAS)” value in test [2] was “A (a compound having 10 or more and less than 20 is denoted as A)”.
With `CC[C@H](C)[C@@H]1NC(=O)[C@H](CC2CC2)N(C)C(=O)C[C@@H](C(=O)N(C)C)N(C)C(=O)[C@H](C2CCCC2)N(C)C(=O)C2(CCC2)NC(=O)[C@@H]2C[C@H](C)CN2C(=O)[C@H](CCc2ccc(C(F)(F)F)c(OC)c2)NC(=O)CN(C)C(=O)[C@H](Cc2ccc(C)cc2)N2CC/C=C\C[C@@H](C2=O)N(C)C(=O)CN(C)C1=O` [PP1861], in test [1], the “NRAS/KRAS (ratio of KD value for NRAS to KD value for KRAS)” value is “A (a compound having 10 or more and less than 20 is denoted as A)”. Besides, the “HRAS/KRAS (ratio of KD value for HRAS to KD value for KRAS)” value in test [2] is “B (a compound having 3 or more and less than 10 is denoted as B)”.
Take `CCC[C@H]1C(=O)N[C@@H]([C@@H](C)CC)C(=O)N(C)CC(=O)N(C)[C@H]2C/C=C\CCN(C2=O)[C@@H](Cc2ccc(C)cc2)C(=O)N(C)CC(=O)N[C@@H](CCc2cc(F)c(C(F)(F)F)c(F)c2)C(=O)N2C[C@H](C)C[C@H]2C(=O)NC2(CCC2)C(=O)N(C)[C@@H](C2CCCC2)C(=O)N(C)[C@H](C(=O)N(C)CC)CC(=O)N1C` [PP1862]: the “NRAS/KRAS (ratio of KD value for NRAS to KD value for KRAS)” value in test [1] is “A (a compound having 10 or more and less than 20 is denoted as A)”. Further, the “HRAS/KRAS (ratio of KD value for HRAS to KD value for KRAS)” value in test [2] was “A (a compound having 10 or more and less than 20 is denoted as A)”.
In the case of `CC[C@H](C)[C@@H]1NC(=O)[C@H](CC2CC2)N(C)C(=O)C[C@@H](C(=O)N(C)C)N(C)C(=O)[C@H](C2CCCC2)N(C)C(=O)C2(CCC2)NC(=O)[C@@H]2C[C@@H](C)CN2C(=O)[C@H](CCc2ccc(C(F)(F)F)c(OC)c2)NC(=O)CN(C)C(=O)[C@H](Cc2ccc(C)cc2)N2CC/C=C\C[C@@H](C2=O)N(C)C(=O)CN(C)C1=O` [PP1863], the “NRAS/KRAS (ratio of KD value for NRAS to KD value for KRAS)” value in test [1] was “A (a compound having 10 or more and less than 20 is denoted as A)”. In addition, in test [2], the “HRAS/KRAS (ratio of KD value for HRAS to KD value for KRAS)” value was “A (a compound having 10 or more and less than 20 is denoted as A)”.
Turning to `CC[C@H](C)[C@@H]1NC(=O)[C@H](CC(C)C)N(C)C(=O)C[C@@H](C(=O)N(C)C)N(C)C(=O)[C@H](C2CCCC2)N(C)C(=O)C2(CCC2)NC(=O)[C@@H]2C[C@H](C)CN2C(=O)[C@H](CCc2cc(F)c(C(F)(F)F)c(F)c2)NC(=O)CN(C)C(=O)[C@H](Cc2ccc(C)cc2)N2CC/C=C\C[C@@H](C2=O)N(C)C(=O)CN(C)C1=O` [PP1864], the “NRAS/KRAS (ratio of KD value for NRAS to KD value for KRAS)” value in test [1] is “A (a compound having 10 or more and less than 20 is denoted as A)”. Moreover, the “HRAS/KRAS (ratio of KD value for HRAS to KD value for KRAS)” value in test [2] is “B (a compound having 3 or more and less than 10 is denoted as B)”.
On to `CC[C@H](C)[C@@H]1NC(=O)[C@H](CC(C)C)N(C)C(=O)C[C@@H](C(=O)N(C)C)N(C)C(=O)[C@H](C2CCCC2)N(C)C(=O)C2(CCC2)NC(=O)[C@@H]2C[C@H](C)CN2C(=O)[C@H](CCc2ccc(C(F)(F)F)c(OC)c2)NC(=O)CN(C)C(=O)[C@H](Cc2ccc(C)cc2)N2CC/C=C\C[C@@H](C2=O)N(C)C(=O)CN(C)C1=O` [PP1865], for which the “NRAS/KRAS (ratio of KD value for NRAS to KD value for KRAS)” value in test [1] is “A (a compound having 10 or more and less than 20 is denoted as A)”. Also, the “HRAS/KRAS (ratio of KD value for HRAS to KD value for KRAS)” value in test [2] was “B (a compound having 3 or more and less than 10 is denoted as B)”.
Take `CC[C@H](C)[C@@H]1NC(=O)[C@H](CC(C)C)N(C)C(=O)C[C@@H](C(=O)N(C)C)N(C)C(=O)[C@H](C2CCCC2)N(C)C(=O)C2(CCC2)NC(=O)[C@@H]2C[C@@H](C)CN2C(=O)[C@H](CCc2cc(F)c(C(F)(F)F)c(F)c2)NC(=O)CN(C)C(=O)[C@H](Cc2ccc(C)cc2)N2CC/C=C\C[C@@H](C2=O)N(C)C(=O)CN(C)C1=O` [PP1866]: the “NRAS/KRAS (ratio of KD value for NRAS to KD value for KRAS)” value in test [1] is “A (a compound having 10 or more and less than 20 is denoted as A)”. Besides, the “HRAS/KRAS (ratio of KD value for HRAS to KD value for KRAS)” value in test [2] is “B (a compound having 3 or more and less than 10 is denoted as B)”.
